The values below come from US9650364B2, “Quinazolines as kinase inhibitors” (GlaxoSmithKline Intellectual Property Development Limited, priority 2013, dated 2017).

Each structure is given as a SMILES string. Where two headings read alike, the source gives them in different places.

For series [1], the target named is T1, RIPK2 (full length FLAG His tagged) (Homo sapiens, UniProt O43353).
T1 construct: Full length FLAG His tagged RIPK2 was purified from a Baculovirus expression system; FLAG (N); 6His (N); made in house; host or cells: Spodoptera frugiperda (Sf9) insect cells, baculovirus
T1 sequence (O43353 whole entry): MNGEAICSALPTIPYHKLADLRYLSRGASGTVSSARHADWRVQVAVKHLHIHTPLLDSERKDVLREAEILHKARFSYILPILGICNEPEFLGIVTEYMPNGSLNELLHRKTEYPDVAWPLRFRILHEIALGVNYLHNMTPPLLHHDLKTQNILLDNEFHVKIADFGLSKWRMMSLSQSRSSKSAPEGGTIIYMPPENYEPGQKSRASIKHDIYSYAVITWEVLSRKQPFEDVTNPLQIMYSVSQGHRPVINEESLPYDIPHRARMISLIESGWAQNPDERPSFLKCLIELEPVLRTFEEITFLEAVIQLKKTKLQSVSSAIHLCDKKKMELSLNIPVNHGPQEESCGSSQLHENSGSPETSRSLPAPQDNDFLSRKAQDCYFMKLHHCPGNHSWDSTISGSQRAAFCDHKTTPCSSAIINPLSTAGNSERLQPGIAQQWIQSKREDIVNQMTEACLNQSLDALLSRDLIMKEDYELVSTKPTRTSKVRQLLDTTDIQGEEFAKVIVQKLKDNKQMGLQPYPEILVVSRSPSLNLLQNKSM
Kind of series: Fluorescent polarization based binding assay at the ATP binding pocket of RIPK2. The following applies: RIPK2 FP binding. The text has this:
A fluorescent polarization based binding assay was developed to quantitate interaction of novel test compounds at the ATP binding pocket of RIPK2, by competition with a fluorescently labeled ATP competitive ligand. Full length FLAG His tagged RIPK2 was purified from a Baculovirus expression system and was used at a final assay concentration of twice the KDapparent. A fluorescent labeled ligand (5-({[2-({[3-({4-[(5-hydroxy-2-methylphenyl)amino]-2-pyrimidinyl}amino)phenyl]carbonyl}amino)ethyl]amino}carbonyl)-2-(6-hydroxy-3-oxo-3H-xanthen-9-yl)benzoic acid, prepared as described in WO2011/120025) was used at a final assay concentration of 5 nM. Both the enzyme and ligand were prepared in solutions in 50 mM HEPES pH7.5, 150 mM NaCl, 10 mM MgCl2, 1 mM DTT, and 1 mM CHAPS. Test compounds were prepared in 100% DMSO and 100 nL was dispensed to individual wells of a multiwell plate. Next, 5 ul RIPK2 was added to the test compounds at twice the final assay concentration, and incubated at rt for 10 min. Following the incubation, 5 ul of the fluorescent labeled ligand solution, was added to each reaction, at twice the final assay concentration, and incubated at rt for at least 10 min. Finally, samples were read on an instrument capable of measuring fluorescent polarization. Test compound inhibition was expressed as percent (%) inhibition of internal assay controls.
For concentration/dose response experiments, normalized data were fit and pIC50s determined using conventional techniques. The pIC50s are averaged to determine a mean value, for a minimum of 2 experiments.
Full-length human RIPK2 (receptor-interacting serine-threonine kinase 2) cDNA was purchased from Invitrogen (Carlsbad, Calif., USA, Clone ID:IOH6368, RIPK2-pENTR 221). Gateway® LR cloning was used to site-specifically recombine RIPK2 downstream to an N-terminal FLAG-6His contained within the destination vector pDEST8-FLAG-His6 according to the protocol described by Invitrogen. Transfection into Spodoptera frugiperda (Sf9) insect cells was performed using Cellfectin® (Invitrogen), according to the manufacturer's protocol.

Series [2] deals with RIP2 kinase-dependent cytokine production (TNFα) in human whole blood. As to the kind of experiment: MDP-stimulated human whole blood cytokine (TNFα) production assay. It is filed as cell-based. The following applies: inhibition of TNFα, MDP 100 ng/mL, 6 hr, mean of minimum 2 experiments. Here is the method:
A muramyl dipeptide (MDP)-stimulated human whole blood cytokine production assay was developed to evaluate the cellular potency and efficacy of novel test compounds. Heparinized blood (160 μL) obtained from healthy human volunteers was dispensed into individual wells of a multiwell plate. Test compounds were dissolved in 100% DMSO and diluted in calcium- and magnesium-free D-PBS to prepare 10× working stock solutions. Twenty microliters of diluted test compound was added per well and the plates were placed on a plate shaker (500 rpm) and incubated for 30 min in a humidified incubator (37° C., 5% CO2). A 10× working stock of MDP was prepared in sterile, endotoxin-free water containing 1% DMSO. Twenty microliters of the MDP stock solution was added per well (final conc.=100 ng/mL) to stimulate RIP2 kinase-dependent cytokine production. The final concentration of DMSO was 0.1% (v/v) in all wells. Plates were incubated for an additional 6 hr (as noted above). Then an additional 100 μL of D-PBS (Dulbecco's phosphate-buffered saline) was added/well, the plates were centrifuged, and supernatants collected. TNFα levels in the supernatants were quantified using a commercial immunoassay (MesoScale Discovery). Test compound inhibition was expressed as percent (%) inhibition of internal assay controls. For concentration/dose response experiments, normalized data were fit and pIC50s determined using conventional techniques. The pIC50s are averaged to determine a mean value, for a minimum of 2 experiments.

The test system of the next series is 337 member kinase panel. Kind of series: Kinome selectivity, in vitro profiling (Reaction Biology Corporation). It is filed as biochemical. The conditions noted are these: compound at 1 μM. Here is the method:
Kinome selectivity (as conducted by Reaction Biology Corporation, One Great Valley Parkway, Malvern, Pa., USA, 19355, http://www.reactionbiology.com) for the compound of Example 2 (6-(tert-butylsulfonyl)-N-(4,5-dimethyl-1H-pyrazol-3-yl)-7-ethoxyquinazolin-4-amine) was determined via in vitro profiling against a 337 member kinase panel.

Series [3] relates to isolated rabbit left ventricular wedge preparation. As to the kind of experiment: Rabbit cardiac wedge preparation (ECG and isometric contractile force). The conditions noted are these: for TdP Score: BCL=2000 ms, score range −2 to 14; for TdP Score / ICF (% change), contractility / QRS / QT / Tp-e (msec), transmural dispersion / Δ QT %: mean, n = 2; for Proarrhythmia: preparations affected of n = 2. Here is the method:
Female rabbits weighing 2.2-3 kg were anticoagulated with heparin and anesthetized with pentobarbital (50 mg/kg, i.v.). The chest was opened via a left thoracotomy, and the heart was excised and placed in a cardioplegic solution consisting of cold (4° C.) normal Tyrode's solution. A transmural wedge with dimensions of approximately 1.5 cm wide and 2-3 cm long was dissected from the left ventricle.
The wedge tissue was cannulated via the left anterior descending artery or the circumflex artery and perfused with cardioplegic solution. The preparation was then placed in a small tissue bath and arterially perfused with Tyrode's solution (T: 35.7±0.1° C., perfusion pressure: 30-45 mmHg). The ventricular wedge was allowed to equilibrate in the tissue bath until electrically stable, usually one hour. The preparations were stimulated at basic cycle lengths (BCL) of 1000 and 2000 msec using bipolar silver electrodes insulated except at the tips and applied to the endocardial surface.
A transmural electrocardiogram (ECG) was recorded in all experiments using extracellular silver/silver chloride electrodes placed in the Tyrode's solution bathing the preparation 1.0 to 1.5 cm from the epicardial and endocardial surfaces, along the same vector as the transmembrane recordings (Epi: “+” pole). On the ECG, transmural dispersion of repolarization (TDR) was defined by the interval between the end and the peak of T wave (Tp-e). The QT interval was defined as the time from the onset of the QRS to the point at which the final downslope of the T wave crossed the isoelectric line. QRS, QT, and Tp-e durations are measured for 10 sweeps and averaged per treatment. Data from total population of animals is averaged per treatment, and compared to average control values.
isometric contractile force generation (% ICF) is measured for 10 sweeps and averaged per treatment. Data from total population of animals is averaged per treatment, and compared to average control values.
Each test compound was prepared in 100% DMSO at a stock concentration of 30 mM. Compound was diluted to the highest concentration tested into Tyrode's buffer (containing in mM: 129 NaCl, 4 KCl, 0.9 NaH2PO4, 20 NaHCO3, 1.8 CaCl2, 0.5 MgSO4, and 5.5 glucose, pH 7.4 when buffered with 95% O2 and 5% CO2) from which subsequent serial dilutions were prepared.
Each test compound was tested at 4 concentrations, from 1-30 μM. After the wedge preparations were perfused with normal Tyrode's solution and stimulated at a BCL of 1000 msec for one hour, stimulation frequency was reduced to a BCL of 2000 msec for a 5 minute period of stabilization after which baseline ECG and isometric contractile force (ICF) were recorded. The preparations were then returned to a BCL of 1000 msec and perfused with Tyrode's solution containing a test compound. For each test compound concentration, wedge preparations were perfused for 20 minutes at a BCL of 1000 msec followed by 5 minutes at a BCL of 2000 msec during which ECG and ICF were recorded. The compound of Example 2 (6-(tert-butylsulfonyl)-N-(4,5-dimethyl-1H-pyrazol-3-yl)-7-ethoxyquinazolin-4-amine) was evaluated in the rabbit cardiac wedge preparation. The four major readouts from the wedge preparation include QT prolongation, torsadogenicity (TdP score derived from QT, Tp-e and early after depolarizations), impulse conduction (QRS-related) and contractility, which are presented in Table 2.
A scoring system was used for the estimate of risk of a compound for the relative TdP risk using the isolated rabbit left ventricular wedge preparation: points for the QT interval, the Tp-e/QT ratio. The TdP score was generated by first converting the QT interval and Tp-e/QT ratio to % change from baseline. These values are individually assigned a TdP score based on the following system: <−5%=−1, −5% to 10%=0, 10% to 20%=1, 20% to 30%=2, >30%=3. Total scoring system range is −2 to 14 at BCL=2000 ms.

The mark [4] stands for this setting: mean of minimum 2 experiments, read-out: pIC50 (converted).
The mark [5] stands for this setting: updated average after continued testing, read-out: average pIC50 after continued testing (converted).

Consider `Cc1[nH]nc(Nc2ncnc3cc(OCC4CCCO4)c(S(=O)(=O)C(C)(C)C)cc23)c1C` (stereo not shown) [Example 4, 6-(tert-Butylsulfonyl)-N-(4,5-dimethyl-1H-pyrazol-3-yl)-7-((tetrahydrofuran-2-yl)methoxy)quinazolin-4-amine], for which the IC50 is 10 nM in series [1] (setting [4]) and 63.1 nM in series [2].

Regarding `CCOc1cc2ncnc(Nc3n[nH]c(C)c3C)c2cc1S(=O)(=O)C(C)(C)C` [Example 2, 6-(tert-Butylsulfonyl)-N-(4,5-dimethyl-1H-pyrazol-3-yl)-7-ethoxyquinazolin-4-amine], the IC50 in series [1] (setting [4]) was 15.8 nM. In addition, in the series on 337 member kinase panel, the “number of kinases with >50% inhibition, of 337 kinases tested” value is reported as 4 and the “number of kinases with >70% inhibition, of 337 kinases tested” value came out at 1. In addition, in series [2], the IC50 is 63.1 nM. In addition, in series [3] (1 μM), the “TdP Score” value is reported as −0.50; the “ICF (% change), contractility” value is given as −4.4%; the “QRS” value was determined as 39.6 ms; the “QT” value was found to be 346.4 ms. Also, in series [3] (1 μM), the “Tp-e (msec), transmural dispersion” value was found to be 71.9 ms; the “Δ QT %” value is on record as 3%; the Proarrhythmia is reported as 0/2. Also, in series [3] (3 μM), the “TdP Score” value stood at 0.00; the “ICF (% change), contractility” value is given as −5.3%; the “QRS” value was 39.2 ms; the “QT” value is 351.9 ms. In series [3] (3 μM), the “Tp-e (msec), transmural dispersion” value was determined as 73.2 ms; the “Δ QT %” value was determined as 4.8%; the Proarrhythmia is listed as 0/2. For the same compound, in series [3] (10 μM), the “TdP Score” value is −0.50; the “ICF (% change), contractility” value was −15.1%; the “QRS” value was 39.4 ms; the “QT” value came out at 348.8 ms. In series [3] (10 μM), the “Tp-e (msec), transmural dispersion” value is 68.4 ms; the “Δ QT %” value stood at 4.0%; the Proarrhythmia is given as 0/2. In addition, in series [3] (30 μM), the “TdP Score” value is on record as −0.50; the “ICF (% change), contractility” value was −20.7%; the “QRS” value stood at 39.7 ms; the “QT” value stood at 348.8 ms. Further, in series [3] (30 μM), the “Tp-e (msec), transmural dispersion” value was found to be 69.1 ms; the “Δ QT %” value was found to be 4.0%; the Proarrhythmia is given as 0/2.

As for `CCCOc1cc2ncnc(Nc3n[nH]c(C)c3C)c2cc1S(=O)(=O)C(C)(C)C` [Example 3, 6-(tert-Butylsulfonyl)-N-(4,5-dimethyl-1H-pyrazol-3-yl)-7-propoxyquinazolin-4-amine], the IC50 in series [1] (setting [4]) is 12.6 nM; in series [1] (setting [5]) it was 7.94 nM; in series [2], 100 nM.

With `COCCOc1cc2ncnc(Nc3n[nH]c(C)c3C)c2cc1S(=O)(=O)C(C)(C)C` [Example 1, 6-(tert-Butylsulfonyl)-N-(4,5-dimethyl-1H-pyrazol-3-yl)-7-(2-methoxyethoxy)quinazolin-4-amine], the IC50 in series [1] (setting [4]) is 39.8 nM; in series [1] (setting [5]) it was 31.6 nM; in series [2], 39.8 nM.
